≈ marks a conversion by molar mass, not a printed value.
How the values were obtained:
[1] = cited from earlier work
rats = conditions: high doses; cited from earlier work
[2] = early clinical trial; cited from earlier work
[3] = predicted by PreADMET; cited from earlier work
[4] = system: lung carcinoma (H1299) cells; assay: Cell viability (MTT) assay, H1299; assay type: cell-based, human
Experimental: (§1) 8. Typical Procedure for Cell Viability Assay
(§2) The breast carcinoma (MCF-7), lung carcinoma (H1299), and prostate carcinoma (DU145) cells were first plated at a density of 5×10^3 cells per well in 96-well plates for overnight and then treated with different concentrations of these compounds. After 48 h of treatment, 100 µL of MTT solution was added to each well and the cells were incubated for 1 h at 37° C. Then, the MTT solution was completely removed and […] of DMSO was added to solubilize the MTT formazan crystals. Finally, the absorbance was measured using a MQX200R microplate reader (BioTek, VT, USA) at a wavelength of 550 nm.

[5] = system: breast carcinoma (MCF-7) cells; assay: Cell viability (MTT) assay, MCF-7; assay type: cell-based, human
Experimental: as §1, §2

[6] = system: prostate carcinoma (DU145) cells; assay: Cell viability (MTT) assay, DU145; assay type: cell-based, human
Experimental: as §1, §2

[7] = system: MCF-7, H1299, DU145 cancer cell lines; assay type: cell-based, human
Experimental: as §2
The cytotoxic activities of 18 compounds 4a-i and 5a-i were evaluated against three human cancer cell lines, breast carcinoma (MCF-7), lung carcinoma (H1299), and prostate carcinoma (DU145), using tylophorine (4i) and 7-methoxycryptopleurine (5i) for comparison. […] In the phenanthroindolizidine series, the IC50 ratio of compounds 4a-h to tylophorine (4i) followed the order: 4a˜4h˜4e>4f>>4b˜[…]>4d>4g; however, in the phenanthroquinolizidine series, the IC50 ratio of compounds 5a-h to 7-methoxycryptopleurine (5i) followed the order: 5c˜5a˜5h˜5b>>5f˜5d>5e>5g. […] Based on the SAR results, a more polar phenanthroquinolizidine, 7-hydroxycryptopleurine (20), was designed and synthesized to decrease the CNS toxicity and increase the water solubility. […]

[8] = Solubility in the dosing solvent system; conditions: 2.5% DMSO, 2.5% EtOH, 5% Cremophor EL, and 90% normal saline
[9] = system: cyclin D1, CDK4, cyclin E, CDK2, cyclin B1, and CDK1; assay: Western blot of H1299 cell cycle associated protein; assay type: cell-based, human; conditions: H1299 cells, 7, 14, and 21 nM, 12, 24, and 48 h
Experimental: 9. The Effect of Compound 20 on H1299 Cell Cycle Associated Protein
9.1 Western Blot Analysis
H1299 cells were first seeded at a density of 3×10^5 cells per well in six-well plates overnight and then treated with compound 20 at three different concentrations (7, 14, and 21 nM) for 12, 24, and 48 h. The cells were washed with PBS buffer and lysed in ice-cold RIPA buffer for 30 min. The supernatant was collected and centrifuged at 15,000 rpm at 4° C. for 30 min. The protein concentration was measured with a Bio-Rad assay using a MQX200R microplate reader (BioTek, VT, USA). The cell lysates were separated by 10% SDS-PAGE and electrophoretically transferred onto polyvinylidene difluoride (PVDF) membranes (Millipore, Bedford, Mass.). After several washes, the membranes were blocked with 5% skim milk in TBST (tris-buffered saline containing 0.1% Tween-20) at room temperature for 1 h and incubated with different primary antibodies against cyclin D1, CDK4, cyclin E, CDK2, cyclin B1, and CDK1 (1:2000 dilution) at 4° C. for overnight. […] After washing three times in TBST, the bound antibody was visualized using ECL Western Blotting Reagent (PerkinElmer, Boston), and chemiluminescence was detected using a Fuji Medical X-ray film (Tokyo, Japan).
All the data were expressed as means±SEM for three replicate experiments. […]

female athymic nude mice = assay: Rotarod test for motor coordination (neurotoxicity); assay type: in vivo; conditions: i.p., 20 at 10 mg/kg vs 5i at 0.08 mg/kg, 15 administrations, 5 rpm, three consecutive days
Text: 10. Rotarod Test for Motor Coordination
The protocol of rotarod test was based on those described in the literature [Y. Z. Lee, C. W Yang, H. Y. Hsu, Y. Q. Qiu, T. K. Yeh, H. Y. Chang, et al., J. Med. Chem. 2012, 55, 10363-10377] with slight modifications. Eight week-old female athymic nude mice were used. All the animal experiments followed ethical standards, and the protocols have been reviewed and approved by the Animal Care and Use Committee of China Medical University (IACUC approval no: 102-235-N). The mice were randomly divided into two groups (n=3) and treated with compound 20 (10 mg/kg) or 7-methoxycryptopleurine 5i (0.08 mg/kg) intraperitoneally. The compounds were dissolved in a mixture of 2.5% DMSO, 2.5% EtOH, 5% Cremophor EL, and 90% normal saline. Each group was administered once daily, five days per week for 15 times in total. After 15 administrations of the compounds, the mice were placed on the rotarod apparatus for training (day 1) and test (days 2-4) with the rod set in motion at a constant speed of 5 rpm. The latency time to fall from the rotating rod was recorded for a maximum of 180 s.

physchem = conditions: aqueous with cosolvent or surfactant or cyclodextrin
[10] = system: normal human lung fibroblast cell line, MRC-5; assay: Cytotoxicity against normal lung fibroblasts MRC-5; assay type: cell-based; conditions: MRC5
[11] = Homo sapiens, NCI-H1299, 48 h treatment
[12] = Homo sapiens, MCF7, 48 h treatment
[13] = Homo sapiens, DU-145, 48 h treatment

Compound: COc1cc2c3c(c4cc(OC)c(OC)cc4c2cc1OC)CN1CCC[C@@H]1C3 [Compound 1, (R)-tylophorine]
- water solubility [1]: low
- CNS side effects (rats): caused central nervous system (CNS) side effects

Compound: COc1cc2c3c(c4ccc(OC)c(OC)c4c2cc1OC)CN1CCC[C@@H]1C3 [Compound 2, (R)-tylocrebrine]
- clinical trial outcome [2]: failed in the early clinical trial owing to CNS toxicity

Compound: COc1ccc2c3c(c4cc(OC)c(OC)cc4c2c1)C[C@H]1C[C@H](O)CCN1C3 [Compound 3]
- BBB penetration [3]: significantly reduced the BBB penetration

Compound: COc1cc2c3c(c4c(OC)c(OC)c(OC)cc4c2cc1OC)CC1CCCN1C3 (centres unmarked) [Compound 4a, 1,2,3,6,7-Pentamethoxy-11,12,12a,13-tetrahydro-10H-9a-azacyclopenta[b]triphenylene]
- IC50 [4, 11]: > 2.5 µM
- melting point: 225 to 226 °C
- IC50 [5, 12]: > 2.5 µM
- IC50 [6, 13]: > 2.5 µM

Compound: COc1ccc2c3c(c4cc(OC)c(OC)cc4c2c1)CN1CCC[C@H]1C3 [Compound 4b, Deoxypergularinine]
- IC50 ([4]; 48 h treatment): 0.235 µM
- IC50 ([5]; 48 h treatment): 0.305 µM
- IC50 ([6]; 48 h treatment): 0.176 µM

Compound: COc1ccc2c(c1)c1c(c3cc(OC)c(OC)cc32)CN2CCCC2C1 (centres unmarked) [Compound 4c, 2,6,7-Trimethoxy-11,12,12a,13-tetrahydro-10H-9a-azacyclopenta[b]triphenylene]
- IC50 [4, 11]: > 2.5 µM
- melting point: 187 to 189 °C
- IC50 [5, 12]: 2.48 µM
- IC50 [6, 13]: 2.15 µM

Compound: COc1cc2c3c(c4cc(OC)c(OC)c(OC)c4c2cc1OC)CC1CCCN1C3 (centres unmarked) [Compound 4d, 4-Methoxytylophorine]
- IC50 ([4]; 48 h treatment): 0.0541 µM
- IC50 ([5]; 48 h treatment): 0.0612 µM
- IC50 ([6]; 48 h treatment): 0.0588 µM

Compound: COc1cc2c3c(c4cc(OC)c(OC)c(OC)c4c2cc1OC)CN1CCCC1C3 (centres unmarked) [Compound 4e, 2,3,5,6,7-Pentamethoxy-11,12,12a,13-tetrahydro-10H-9a-azacyclopenta[b]triphenylene]
- IC50 [4, 11]: 0.165 µM
- melting point: 169 to 170 °C
- IC50 [5, 12]: 0.224 µM
- IC50 [6, 13]: 0.15 µM

Compound: COc1ccc2c3c(c4cc(OC)c(OC)cc4c2c1)C[C@H]1CCCN1C3 [Compound 4g, Antofine]
- IC50 ([4]; 48 h treatment): 0.0325 µM
- IC50 ([5]; 48 h treatment): 0.0424 µM
- IC50 ([6]; 48 h treatment): 0.0303 µM

Compound: COc1cc2c3c(c4c(OC)c(OC)c(OC)cc4c2cc1OC)CN1CCCC1C3 (centres unmarked) [Compound 4h, 2,3,6,7,8-Pentamethoxy-11,12,12a,13-tetrahydro-10H-9a-azacyclopenta[b]triphenylene]
- IC50 [4, 11]: > 2.5 µM
- melting point: 231 °C (dec.)
- IC50 [5, 12]: > 2.5 µM
- IC50 [6, 13]: > 2.5 µM

Compound: COc1cc2c3c(c4cc(OC)c(OC)cc4c2cc1OC)CN1CCC[C@@H]1C3 [Compound 4i, Tylophorine]
- IC50 ([4]; 48 h treatment): 0.0309 µM
- IC50 ([5]; 48 h treatment): 0.0411 µM
- IC50 ([6]; 48 h treatment): 0.0283 µM

Compound: COc1cc2c3c(c4c(OC)c(OC)c(OC)cc4c2cc1OC)CC1CCCCN1C3 (centres unmarked) [Compound 5a, 1,2,3,6,7-Pentamethoxy-10,11,12,13,13a,14-hexahydro-9H-9a-azabenzo[b]triphenylene]
- IC50 [4, 11]: 0.252 µM
- melting point: 191 to 192 °C
- IC50 [5, 12]: 0.276 µM
- IC50 [6, 13]: 0.272 µM

Compound: COc1ccc2c3c(c4cc(OC)c(OC)cc4c2c1)CN1CCCCC1C3 (centres unmarked) [Compound 5b, Boehmeriasin A]
- IC50 ([4]; 48 h treatment): 0.211 µM
- IC50 ([5]; 48 h treatment): 0.272 µM
- IC50 ([6]; 48 h treatment): 0.184 µM

Compound: COc1ccc2c(c1)c1c(c3cc(OC)c(OC)cc32)CN2CCCCC2C1 (centres unmarked) [Compound 5c, 2,6,7-Trimethoxy-10,11,12,13,13a,14-hexahydro-9H-9a-azabenzo[b]triphenylene]
- IC50 [4, 11]: 0.314 µM
- melting point: 182 to 184 °C
- IC50 [5, 12]: 0.393 µM
- IC50 [6, 13]: 0.279 µM

Compound: COc1cc2c3c(c4cc(OC)c(OC)c(OC)c4c2cc1OC)CC1CCCCN1C3 (centres unmarked) [Compound 5d, 4,7-Dimethoxycryptoplerine]
- IC50 ([4]; 48 h treatment): 0.0544 µM
- IC50 ([5]; 48 h treatment): 0.0619 µM
- IC50 ([6]; 48 h treatment): 0.0357 µM

Compound: COc1cc2c3c(c4cc(OC)c(OC)c(OC)c4c2cc1OC)CN1CCCCC1C3 (centres unmarked) [Compound 5e, 2,3,5,6,7-Pentamethoxy-10,11,12,13,13a,14-hexahydro-9H-9a-azabenzo[b]triphenylene]
- IC50 [4, 11]: 0.0276 µM
- melting point: 166 to 167 °C
- IC50 [5, 12]: 0.0193 µM
- IC50 [6, 13]: 0.0238 µM

Compound: COc1ccc2c(c1)c1c(c3cc(OC)c(OC)cc32)CC2CCCCN2C1 (centres unmarked) [Compound 5f, 2,3,7-Trimethoxy-10,11,12,13,13a,14-hexahydro-9H-9a-azabenzo[b]triphenylene]
- IC50 [4, 11]: 0.0573 µM
- melting point: 156 to 158 °C
- fold increase in the cytotoxicity relative to compound 4f [7]: 28-36 fold
- IC50 [5, 12]: 0.0687 µM
- IC50 [6, 13]: 0.0418 µM

Compound: COc1ccc2c3c(c4cc(OC)c(OC)cc4c2c1)C[C@H]1CCCCN1C3 [Compound 5g, Cryptopleurine]
- IC50 ([4]; 48 h treatment): 0.009 µM
- IC50 ([5]; 48 h treatment): 0.0113 µM
- IC50 ([6]; 48 h treatment): 0.0046 µM

Compound: COc1cc2c3c(c4c(OC)c(OC)c(OC)cc4c2cc1OC)CN1CCCCC1C3 (centres unmarked) [Compound 5h, 2,3,6,7,8-Pentamethoxy-10,11,12,13,13a,14-hexahydro-9H-9a-azabenzo[b]triphenylene]
- IC50 [4, 11]: 0.232 µM
- melting point: 211 °C (dec.)
- IC50 [5, 12]: 0.277 µM
- IC50 [6, 13]: 0.215 µM

Compound: COc1cc2c3c(c4cc(OC)c(OC)cc4c2cc1OC)CN1CCCCC1C3 (centres unmarked) [Compound 5i, 7-Methoxycryptopleurine]
- IC50 ([4]; 48 h treatment): 0.0071 µM
- solubility in the solvent system [8]: less than 0.08 mg/mL
- IC50 ([5]; 48 h treatment): 0.0107 µM
- IC50 ([6]; 48 h treatment): 0.0045 µM

Compound: COc1cc2c(cc1O)c1c(c3cc(OC)c(OC)cc32)CC2CCCCN2C1 (centres unmarked) [Compound 20, 7-Hydroxy-2,3,6-trimethoxy-10,11,12,13,13a,14-hexahydro-9H-9a-azabenzo[b]triphenylene]
- IC50 [4, 11]: 0.0052 µM
- cell cycle associated protein expression [9]: decrease in cyclin D1-cdk4, cyclin E-cdk2, and cyclin B1-cdk1 expression
- motor coordination (neurotoxicity), rotarod (female athymic nude mice): better motor coordination than the compound 5i-treated group
- melting point: 114 to 115 °C
- solubility (physchem): ~1.3 mg/mL (≈ 3.3 mM)
- IC50 [10]: 0.026 µM
- IC50 [5, 12]: 0.0064 µM
- IC50 [6, 13]: 0.0044 µM

Compound: Desmethoxytylophorine [Compound 4f]
- IC50 ([4]; 48 h treatment): 2.02 µM
- IC50 ([5]; 48 h treatment): 1.91 µM
- IC50 ([6]; 48 h treatment): 1.51 µM

From patent US9708310B2, “Phenanthroindolizidine and phenanthroquinolizidine alkaloid having a hydroxyl group on the phenanthrene ring thereof, preparation method and use thereof” (CHINA MEDICAL UNIVERSITY, priority 2015, dated 2017)
